Data published in publication PMC4142417, “Epigenetic Impacts of Ascorbate on Human Metastatic Melanoma Cells” (Frontiers in Oncology, 2014).
Like-named read-outs stand apart in the source and are kept apart here.

Tests used:
[1] = tested on: 9 human melanoma cell lines; set-up: method as in PMID 24330097; details: ref [5], cited from earlier work
[2] = tested on: human HDACs (HeLa nuclear extract); assay: HDAC-inhibitor screening assay with HeLa nuclear extract; type: biochemical; details: 5–8000 μM, 2 h at 37°C
Procedure: Determination of a possible HDAC-inhibitor activity of ascorbate was done by using the HDAC assay kit (Active Motif, Rixensart, Belgium). Ascorbate was diluted in assay buffer to the final concentrations of 5, 10, 20, 50, 100, 200 μM, and 8 mM. Assay was performed according to manufacturer’s protocol. Briefly, ascorbate was incubated with HeLa nuclear extract as a source of human HDACs for 2 h at 37°C and the developing time was set to 10 min. Each experiment was performed in triplicates and repeated three times.
(A) Overall HDAC inhibition in cellular extracts of the human cell line HeLa by increasing concentrations of ascorbate (5–8000 μM). As reference inhibitor 100 μM suberoylanilide hydroxamic acid (SAHA) was used. Every concentration was tested three times in triplicates. (B) Specific fluorometric profiling assay using recombinant human HDACs of classes I, II, and IV. Specific inhibition values were generated for the treatment with 50 μM and 8 mM ascorbate. Inhibition values for every HDAC were yielded by two experiments, each performed in duplicates. Shown are mean ± SD. One-way ANOVA Dunnett’s multiple comparison test, n.s. indicates not significant.

[3] = tested on: miRNA expression in BLM melanoma cells; assay: miRNA expression chip analysis; type: cell-based, human
Procedure: microRNA was isolated from BLM cells using the miRNeasy kit (Qiagen, Hilden, Germany) according to the procedure described by the manufacturer. miRNA expression analysis was performed on BLM melanoma cells (five groups: untreated; 200 μM, 8 mM ascorbate treated, 4 and 12 h after the 1 h treatment, all in triplicates) using the human miRNA Microarray Release 14.0, 8x15K (Agilent, Waldbronn, Germany) based on Sanger miRbase (release 14.0). Two hundred nanograms of RNA were used per sample. The miRNA expression analysis was kindly performed at the Genomic Core Facility of the European Molecular Biology Laboratory (EMBL, Heidelberg, Germany) according to the supplier’s instructions. Evaluation of raw data generated at the Genomic Core Facility of the EMBL was performed as described previously ([32]).
Figure 6 Ascorbate alters the expression of miRNA in melanoma cells. A miRNA expression chip analysis was performed on human metastatic BLM melanoma cells (5 groups: untreated, 200 μM ascorbate, 8 mM ascorbate, both 4 and 12 h after ascorbate exposure; all in triplicates) using the human miRNA Microarray Release 14.0, 8x15K (Agilent Technologies) based on Sanger miRbase (release 14.0). A total of 151 miRNAs were differentially expressed in response to ascorbate.

LOX-IMVI melanoma cells = tested on: LOX-IMVI melanoma cells; set-up: method as in PMID 24330097; details: 8 mM, ref [5]; cited from earlier work
[4] = tested on: DNA methyltransferase (DNMT) activity in MeWo melanoma cells; assay: DNMT activity in nuclear extracts of treated MeWo cells; type: cell-based, human; details: 200 μM for 1 h, nuclear extract 12 h after treatment
Procedure: (§1) DNMT activity was analyzed in the nuclear extracts with the DNMT activity/inhibition assay (Active Motif) according to the procedure described by the manufacturer.
(§2) Global DNMT activity was determined in nuclear extracts of MeWo and BLM cells 12 h after 1 h treatment with 200 μM or 8 mM ascorbate.

BLM melanoma cells = assay: Cell-cycle analysis (propidium iodide, FACS); type: cell-based, human; details: 8 mM for 1 h
Procedure: BLM cells were incubated with ascorbate at 8 mM. After 0–24 h (in 2 h intervals) the cells (1 × 10^6) were harvested, washed with cold PBS, fixed with 75% ethanol, and incubated at 4°C for at least 1 h. Cells were then centrifuged and washed twice in cold PBS. Intracellular DNA was labeled with propidium iodide solution [propidium iodide […] (Sigma) and RNase […] (Thermo Scientific) in PBS] and incubated at 4°C for 30 min in the dark. Cell cycle was analyzed using flow cytometry and FACSDiva software (BD Biosciences, Heidelberg, Germany). As shown previously ([5]), pharmacological doses of ascorbate in the low millimolar-range induce cell death in human cancer cells. However, since in the latter publication we only performed end-point analyses 24 h after incubation of the cells with ascorbate, for the current project we exposed BLM cells to pharmacological 8 mM ascorbate for 1 h, and the cells were ethanol-fixed every 2 h for 24 h to closely monitor cell-cycle alterations at 2 h intervals over 24 h. The cell cycle was analyzed with FACS after staining of the cells with propidium iodide. […] At 12 h post ascorbate exposure only a small percentage of the BLM cells were shifted toward the sub-G1 fraction of cells. Therefore, the 12 h time point after ascorbate exposure was chosen for the following experiments.  Figure 2 Pharmacological ascorbate induces apoptosis in human metastatic BLM melanoma cells in a time-dependent manner. BLM cells were treated with 8 mM ascorbate for 1 h. Cells were ethanol-fixed every 2 h for 24 h, stained with propidium iodide, and cell cycle was analyzed with FACS. Depicted are the FACS plots for the untreated control cells and for 2, 4, 6, 8, 12, 16, 20, and 24 h after ascorbate exposure. […] Gray colored graphs indicate the control cells; black colored graphs (2–8 h) the initial shift into G2/M phase; red colored graphs (12–24 h) the subsequent shift into sub-G1 fraction.

[5] = tested on: GLUT-1 expression (HIF-1α downstream target) in melanoma cell lines; set-up: method as in PMID 24330097; details: treatment at the individual IC50 concentrations, ref [5]; cited from earlier work
[6] = tested on: 60 cancer cell lines of the NCI60 panel; set-up: method as in PMID 24330097; details: ref [5], read-out: overall IC50 of all 60 cancer cell lines; cited from earlier work
[7] = set-up: method as in PMID 23670640; details: i.v. administration of 70 g/m^2; ref [16]; cited from earlier work
[8] = tested on: human HDAC1, HDAC2, HDAC3, HDAC4, HDAC5, HDAC6, HDAC7, HDAC8, HDAC9, HDAC10, and HDAC11; assay: HDAC-inhibitor profiling assay (fluorometric, recombinant HDACs of classes I, II, and IV); type: biochemical; details: 50 μM and 8 mM ascorbate
Procedure: The HDAC profiling assay was performed on basis of fluorometric measurement by Scottish Biomedical (Scottish Biomedical, Glasgow, UK). The percentage inhibition values of 50 μM and 8 mM ascorbate against human HDAC1, HDAC2, HDAC3, HDAC4, HDAC5, HDAC6, HDAC7, HDAC8, HDAC9, HDAC10, and HDAC11 was determined. Both concentrations of ascorbate were tested in two experiments, each in duplicates.

[9] = tested on: DNA methyltransferase (DNMT) activity in BLM melanoma cells; assay: DNMT activity in nuclear extracts of treated BLM cells; type: cell-based, human; details: 200 μM for 1 h, nuclear extract 12 h after treatment
Procedure: as §1, §2

[10] = 8 mM vs. 200 μM for 1 h, after 12 h
[11] = 12 h after 1 h exposure, 8 mM vs. 200 μM ascorbate

Compound: O=C1O[C@H]([C@@H](O)CO)C(O)=C1O [ascorbate, ascorbic acid]
- IC50 for all melanoma cell lines ([1]; NCI60 melanoma cell lines): low millimolar range
- IC50 ([1]; NCI60 melanoma cell lines, read-out: IC50 for all melanoma cell lines): 3.1 mM
- IC50 ([1]; NCI60 melanoma cell lines, read-out: IC50 range across melanoma cell lines): 0.2 to 8.5 mM
- cytotoxic effect on melanoma cells ([1]; physiological ascorbate (200 μM)): no cytotoxic effect
- overall HDAC inhibition [2]: only a marginal inhibitory activity
- number of miRNAs differentially expressed in response to ascorbate ([3]; 200 μM or 8 mM for 1 h, 4 and 12 h after exposure): 151
- number of up-regulated miRNAs [3, 10]: 32
- up-regulation of the 32 miRNAs [3, 10]: 4- to 38 fold
- Up-regulation of hsa-miR-99b [3, 11]: 2.44 2 × log^2
- Up-regulation of hsa-miR-125b-2 [3, 11]: 2.8 2 × log^2
- Up-regulation of hsa-miR-134 [3, 11]: 2.15 2 × log^2
- Up-regulation of hsa-miR-135a [3, 11]: 2.45 2 × log^2
- Up-regulation of hsa-miR-339-3p [3, 11]: 2.47 2 × log^2
- Up-regulation of hsa-miR-345 [3, 11]: 2.82 2 × log^2
- Up-regulation of hsa-miR-375 [3, 11]: 3.65 2 × log^2
- Up-regulation of hsa-miR-422a [3, 11]: 4.29 2 × log^2
- Up-regulation of hsa-miR-490-5p [3, 11]: 3.91 2 × log^2
- Up-regulation of hsa-miR-516a-3p [3, 11]: 2.56 2 × log^2
- Up-regulation of hsa-miR-564 [3, 11]: 3.28 2 × log^2
- Up-regulation of hsa-miR-583 [3, 11]: 3.97 2 × log^2
- Up-regulation of hsa-miR-596 [3, 11]: 5.26 2 × log^2
- Up-regulation of hsa-miR-614 [3, 11]: 2.61 2 × log^2
- Up-regulation of hsa-miR-617 [3, 11]: 2.33 2 × log^2
- Up-regulation of hsa-miR-629 [3, 11]: 3.38 2 × log^2
- Up-regulation of hsa-miR-630 [3, 11]: 4.3 2 × log^2
- Up-regulation of hsa-miR-654-5p [3, 11]: 3.39 2 × log^2
- Up-regulation of hsa-miR-662 [3, 11]: 3.59 2 × log^2
- Up-regulation of hsa-miR-663 [3, 11]: 2.05 2 × log^2
- Up-regulation of hsa-miR-708 [3, 11]: 3.48 2 × log^2
- Up-regulation of hsa-miR-718 [3, 11]: 2.97 2 × log^2
- Up-regulation of hsa-miR-887 [3, 11]: 5.14 2 × log^2
- Up-regulation of hsa-miR-1181 [3, 11]: 2.06 2 × log^2
- Up-regulation of hsa-miR-1225-5p [3, 11]: 2.38 2 × log^2
- Up-regulation of hsa-miR-1228 [3, 11]: 2.24 2 × log^2
- Up-regulation of hsa-miR-1246 [3, 11]: 2.13 2 × log^2
- Up-regulation of hsa-miR-1268 [3, 11]: 2.84 2 × log^2
- Up-regulation of hsa-miR-1915 [3, 11]: 2.22 2 × log^2
- Up-regulation of hsa-miR-1972 [3, 11]: 2.22 2 × log^2
- Up-regulation of hsa-miR-1973 [3, 11]: 3.08 2 × log^2
- Up-regulation of hsa-miR-2117 [3, 11]: 2.65 2 × log^2
- intracellular peroxide radicals (LOX-IMVI melanoma cells): high amount
- percentage of sub-G1 (apoptotic) cells determined by FACS (LOX-IMVI melanoma cells): increased percentage
- increase of DNMT activity [4]: 4%
- G2/M fraction of cells (BLM melanoma cells; 2 to 8 h after exposure): steadily increased
- sub-G1 fraction of DNA fragmented cells (indicative for apoptosis) (BLM melanoma cells; 12 h post-treatment): prominent increase
- cell cycle shift toward sub-G1 fraction (BLM melanoma cells; 20 h post-treatment): completely shifted toward the sub-G1 fraction
- GLUT-1 expression [5]: decreased
- IC50 [6]: 4.5 mM
- blood peak concentration [7]: up to 49 mM
- inhibition of the 11 human HDACs [8]: neither the physiological 50 μM nor the pharmacologic 8 mM ascorbate showed a significant inhibition
- increase of DNMT activity [9]: 18%
